The text below walks through data of ChEMBL document CHEMBL5727538, “Pyridazinones as PARP7 inhibitors” (2020).

The test concerns the target T1, Protein mono-ADP-ribosyltransferase TIPARP (Homo sapiens, UniProt Q7Z3E1).
T1 sequence (Q7Z3E1 whole entry): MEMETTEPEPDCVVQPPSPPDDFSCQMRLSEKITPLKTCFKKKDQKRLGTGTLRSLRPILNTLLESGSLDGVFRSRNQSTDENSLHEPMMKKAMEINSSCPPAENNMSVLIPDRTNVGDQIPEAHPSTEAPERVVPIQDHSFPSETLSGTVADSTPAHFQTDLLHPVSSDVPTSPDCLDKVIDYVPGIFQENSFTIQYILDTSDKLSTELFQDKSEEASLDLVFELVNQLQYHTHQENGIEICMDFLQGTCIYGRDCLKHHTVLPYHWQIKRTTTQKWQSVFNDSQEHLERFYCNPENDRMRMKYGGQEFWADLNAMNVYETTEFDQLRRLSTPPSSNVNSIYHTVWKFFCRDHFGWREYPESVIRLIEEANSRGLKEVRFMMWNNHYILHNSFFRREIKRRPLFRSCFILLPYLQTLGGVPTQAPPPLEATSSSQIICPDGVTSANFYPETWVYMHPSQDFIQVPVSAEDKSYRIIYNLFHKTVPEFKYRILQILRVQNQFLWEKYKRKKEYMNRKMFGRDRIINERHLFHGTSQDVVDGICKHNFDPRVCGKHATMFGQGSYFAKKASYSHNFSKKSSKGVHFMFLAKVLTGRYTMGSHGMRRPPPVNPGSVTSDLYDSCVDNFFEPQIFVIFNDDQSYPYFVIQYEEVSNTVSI
Put plainly: Enzymatic Assay for Inhibition of PARP7: Displacement of Probe A, a biotinylated probe binding to the TIPARP active site, was measured using a time-resolved fluorescence energy transfer (TR-FRET) assay. 20 nL of a dose response curve of each test compound was spotted in black 384-well polystyrene proxiplates (Perkin Elmer) using a Mosquito (TTP Labtech). Reactions were performed in a 8 μL volume by adding 6 μL of TIPARP and Probe A in assay buffer (20 mM HEPES pH=8, 100 mM NaCl, 0.1% bovine serum albumin, 2 mM DTT and 0.002% Tween20), incubating with test compound at 25° C. for 30 min, then adding 2 μL of ULight-anti 6×His and LANCE Eu-W1024 labeled streptavidin (Perkin Elmer). The final concentrations of TIPARP and Probe A were 6 nM and 2 nM, respectively. The final concentration of ULight-anti 6xHis and LANCE Eu-W1024 labeled streptavidin were 4 nM and 0.25 nM, respectively. Reactions were incubated at 25° C. for an additional 30 min, then read on an Envision platereader equipped with a LANCE/DELFIA top mirror (Perkin Elmer) using excitation of 320 nm and emission of 615 nm and […] with a 90 μs delay. The ratio of the 665/615 nm emission were calculated for each well to determine the amount of complex of TIPARP and Probe A in each well. […] The Hill Coefficient is normally allowed to float but may also be fixed at 1 in a 3-parameter fit. Y is the % inhibition and x is the compound concentration.
Take `N#Cc1ccc(N2CCN(C(=O)CC3COCCN3c3cn[nH]c(=O)c3C(F)(F)F)CC2)nc1` (stereo not drawn): the IC50 (usually the concentration that gives 50% inhibition) was < 100 nM.

As to `N#Cc1ccc(N2CCN(C(=O)[C@H]3C[C@H](OC[C@@H]4CCCN4c4cn[nH]c(=O)c4C(F)(F)F)C3)CC2)nc1`, the IC50 was < 100 nM. As for `C[C@@H](COCCC(=O)N1CCC(Nc2ncc(C(F)(F)F)s2)C1)Nc1cn[nH]c(=O)c1C(F)(F)F` (stereo partly drawn), the concentration for half-maximal inhibition (IC50) was < 100 nM. As for `O=C(CCOC[C@H](Nc1cn[nH]c(=O)c1C(F)(F)F)C1CCNCC1)N1CCN(c2ncc(C(F)(F)F)cn2)CC1`, the IC50 is < 100 nM. With `O=C(COC[C@@H]1CCCN1c1cn[nH]c(=O)c1C(F)(F)F)N[C@H]1CC[C@@H](Nc2ccccn2)CC1`, the IC50 is 100 to 1000 nM. The result for `N#Cc1ccc(N2CCN(C(=O)CCOCCOC3CN(c4cn[nH]c(=O)c4C(F)(F)F)C3)CC2)nc1` reads > 1000 nM; that for `O=c1[nH]ncc(N2Cc3cccc(O)c3C2)c1C(F)(F)F`, < 100 nM; that for `O=C(CCOC[C@@H]1CCCN1c1cn[nH]c(=O)c1C(F)(F)F)N[C@H]1CC[C@H](Nc2ccccn2)CC1`, 100 to 1000 nM.
